Tests used:
Assay type in all cases: biochemical
[1] = system: cDNA (human); test: PCR Residual Activity Assay with three primer sets, agarose gel; conditions: preincubation 25° C. for 60 min, 40 cycles
Protocol: Under these conditions, if hot-start techniques were not employed, primer dimers tend to form in the PCR reaction mix.
This example includes reactions which is referred to as PCR Residual Activity Assay that involved three set of primers respectively. The primer sets are commercially available from Applied Biosystems, Foster City, Calif. Specifically, Set 1 is Hs00378363_g1; Set 2, Hs00399572_m1 and Set 3, Hs00372859_m1.
The components are listed below:
50 Unit/ml DNA polymerase
and 0.8 ng/μl cDNA (human)
Due to the needs of the individual polymerases, 1× buffer and 1×MgCl2 are different as stated below:
The cycling conditions for ECA001 are listed below:
The cycling conditions for ECA001-Gold:
The cycling conditions for AmpliTaq:
The cycling conditions for AmpliTaq Gold:
Each reaction was run in duplication.

[2] = exonuclease to polymerase activity ratio after modification and re-activation; conditions: 5′-3′ exonuclease activity
Text: (See details in Example 5)
It is true that lysine is a common amino acid that can be found in many enzymes.

[3] = polymerase activity at room temperature relative to peak activity
Text: Pol B DNA polymerases enzymes have relative low polymerase activity at room temperature, while Taq DNA polymerase still retains >5% of its peak activity (FIG. 4).

| Substance | non-specific/primer-dimer products versus specific products [1] | exonuclease to polymerase activity ratio [2] | polymerase activity retained, of its peak activity [3] |
| --- | --- | --- | --- |
| AmpliTaq: AmpliTaq DNA polymerase | mostly non-specific/primer-dimer products | has been changed |  |
| Taq DNA polymerase: Thermus aquaticus Pol I (Taq DNA polymerase) |  |  | > 5% |
| AmpliTaq Gold: commercial hot-start modified Taq polymerase used as comparator | mostly the specific products |  |  |
